Experimental data published in patent publication EP1493444A1, “Pharmaceutical composition used as anti-infective of the upper respiratory tract” (priority 2003, dated 2005).

Test system: muqueuse
Test: Comparative acute in vivo toxicity (mucosal irritation, C20)
Set-up: species or system lapin
Conditions: for concentration théorique provoquant une irritation de la muqueuse moyenne identique (C20): rabbit, in vivo
From the text: Enfin, une autre expérience a encore consisté à comparer la toxicité aiguë in vivo du polihexanide avec celle d'autres composés.
A cet effet, la toxicité du polihexanide a été comparée in vivo chez le lapin à celle du digluconate de chlorhexidine, et à celle de trois chlorures de benzyldiméthylalkylammonium.
Pour chacune des substances étudiées, une concentration théorique provoquant une irritation de la muqueuse moyenne identique (C20) a été déterminée.
Ces concentrations sont respectivement : • 0,25 g % pour le chlorure de benzalkonium • 0,28 g % pour le chlorure de benzyldiméthyldodecylammonium • 0,32 g % pour le chlorure de benzyldiméthylhexadecylanmonium • 0,54 g % pour le digluconate de chlorhexidine • 12,2 g % pour le polihexanide.
Ces valeurs montrent par conséquent, que le polihexanide est beaucoup moins toxique pour la muqueuse que les autres composés testés, puisque sa valeur C20 est 22 fois supérieure à celle de la chlorhexidine et 44 fois plus élevée que la valeur moyenne des chlorures de benzalkonium.

CCCCCCCCCCCCC[N+](C)(C)Cc1ccccc1 [chlorure de benzalkonium]
concentration théorique provoquant une irritation de la muqueuse moyenne identique (C20): 0,25 g %

polihexanide
concentration théorique provoquant une irritation de la muqueuse moyenne identique (C20): 12,2 g %
valeur C20 supérieure à celle de la chlorhexidine (ratio of C20 values, versus chlorhexidine): 22 fois
valeur C20 plus élevée que la valeur moyenne des chlorures de benzalkonium (ratio of C20 values, versus the mean of the benzalkonium chlorides): 44 fois

CCCCCCCCCCCC[N+](C)(C)Cc1ccccc1 [chlorure de benzyldiméthyldodecylammonium]
concentration théorique provoquant une irritation de la muqueuse moyenne identique (C20): 0,28 g %

[H]/N=C(\N/C(=N/[H])NCCCCCCNC(=N)NC(=N)Nc1ccc(Cl)cc1)Nc1ccc(Cl)cc1 [digluconate de chlorhexidine]
concentration théorique provoquant une irritation de la muqueuse moyenne identique (C20): 0,54 g %

CCCCCCCCCCCCCCCC[N+](C)(C)Cc1ccccc1 [chlorure de benzyldiméthylhexadecylanmonium]
concentration théorique provoquant une irritation de la muqueuse moyenne identique (C20): 0,32 g %
